Reference: patent US8577617B2, “Metabolic phenotyping” (priority 2002, dated 2013)
Where “and” joins values, the source holds several entries; their conditions need not be identical. Equal values may be shown once. Entries after “also recorded” stand apart in the source; their conditions may differ. Values belong to the compound of their own block, whether it stands above or below them.

How the values were obtained:
male Sprague-Dawley rats [1] = assay: Histopathology of liver after dosing galactosamine HCl; assay type: in vivo, rat; settings: for histopathological changes: 200 mg/kg i.p.
Source text: (§1) Thirty young adult age-matched male Sprague-Dawley rats were obtained from Charles River, France. After observation to ensure that they each appeared healthy they were placed in individual metabolism cages with free access to water and a standard commercial laboratory diet (diet AO4C from Usine d'Alimentation Rationnelle, Villemoisson-sur-Orge, France). The laboratory temperature was maintained at 20.+−−.2 degrees C. and the relative humidity at 60.±.20%. The laboratory air was filtered and changed 14 times per hour. A fixed ‘12 hours light-12 hours dark’ cycle was imposed. The study commenced after a short period of cage ‘acclimatisation’. At the time of dosing (at the start of day 1) the growing rats were each approximately 260 g in mass. Galactosamine (abbreviated GaIN) HCl (from Sigma, France) was dissolved in physiological saline and dosed by intraperitoneal injection at either 200 mg/kg or at 800 mg/kg; ten animals (nos. 101-110) received the low dose and ten animals (nos. 201-210) received the high dose. Ten control animals (nos. 1-10) received an oral dose of corn oil. Five of each group of ten rats were euthanased by means of CO2 on day 2 with the remainder being euthanased by the same technique on day 8. The early-euthanased rats were numbers 6-10, 106-110 and 206-210. The late-euthanased rats were numbers 1-5, 101-105 and 201-205. Blood was sampled from the orbital sinus, under isoflurane anaesthesia. Blood was sampled from all animals on day −3 and just prior to euthanasia on either day 2 or day 8. Following euthanasia each rat was sampled for histopathological examination with the sampling including taking ten liver samples from each rat (two from each liver lobe). The blood samples were collected into vials containing lithium heparin as anticoagulant and immediately centrifuged at approx. minus four degrees C. to separate plasma. A portion of each plasma sample was analysed at thirty degrees C. on an AU600 multiparametric clinical analyser (Olympus) for a range of clinical chemistry parameters including alanine aminotransferase (ALT) and aspartate aminotransferase (AST) amongst many others.

male Sprague-Dawley rats [2] = assay: Clinical chemistry analysis of plasma after dosing galactosamine HCl; assay type: in vivo, rat; settings: plasma 24 hours post-dosing
Description: as §1, with “At” for “Thirty young adult age-matched male Sprague-Dawley rats were obtained from Charles River, France. After observation to ensure that they each appeared healthy they were placed in individual metabolism cages with free access to water and a standard commercial laboratory diet (diet AO4C from Usine d'Alimentation Rationnelle, Villemoisson-sur-Orge, France). The laboratory temperature was maintained at 20.+−−.2 degrees C. and the relative humidity at 60.±.20%. The laboratory air was filtered and changed 14 times per hour. A fixed ‘12 hours light-12 hours dark’ cycle was imposed. The study commenced after a short period of cage ‘acclimatisation’. At”

male Sprague-Dawley rats [3] = assay: 1H NMR of post-dose urine after dosing galactosamine HCl (galactosamine excretion, endogenous metabolite changes, responder classification); assay type: in vivo, rat
Description: At the time of dosing (at the start of day 1) the growing rats were each approximately 260 g in mass. Galactosamine (abbreviated GaIN) HCl (from Sigma, France) was dissolved in physiological saline and dosed by intraperitoneal injection at either 200 mg/kg or at 800 mg/kg; ten animals (nos. 101-110) received the low dose and ten animals (nos. 201-210) received the high dose. Ten control animals (nos. 1-10) received an oral dose of corn oil.
Pre- and post-dose urine samples were collected for 7 hours daily into ice-cooled vessels containing sodium azide (0.100 ml of a 10% (w/v) solution of sodium azide in water) as an antibacterial preservative. There was an additional overnight urine collection on the day of dosing (from 7-24 hours post-dose). The urine collection apparatus was cleaned prior to each collection to minimise bacterial, food and faecal contamination. The urine samples were deep-frozen pending NMR analysis.
Urine samples were prepared for NMR analysis by mixing 400 Eli of urine with 200 μl of phosphate buffer (an 81:19 (v/v) mixture of 0.2 M Na2HPO4 and 0.2 M NaH2PO4; pH 7.4); if insufficient urine was available the shortfall was made up with purified water with a minimum of 200 μl of urine being used. The urine-buffer mixture was left to stand for 10 minutes at room temperature to enable buffering to take place and then centrifuged at 13,000 rpm for a further 10 minutes to remove suspended particulates. 500 μl of ‘clear’ buffered urine was transferred to an NMR tube and 50 μl of a TSP/D2O solution added. TSP (sodium 3-trimethylsilyl-[2,2,3,3-^2H4]-1-propionate) is a chemical shift reference compound (δ 0) used in the NMR experiment and the D2O provided a field/frequency lock for the NMR spectrometer. The concentration of the TSP/D2O solution was such as to give a final TSP concentration of 0.1 mM in the NMR tube. The NMR analyses were carried out at thirty degrees C. on a Bruker AMX 600 MHz NMR spectrometer with the NOESYPRESAT pulse sequence (Claridge, 1999) used to reduce the size of the water signal. The principal acquisition parameters were:
After acquisition, the NMR spectra were Fourier-transformed into 32768 data points following application of 0.3 Hz line-broadening by means of an exponential multiplication applied to the free induction decay signal. The spectra were phased to give an even baseline around the NMR signals and the chemical shift scale was set by assigning the value of δ 0 to the TSP peak. Prior to data-reduction, the baseline of each day −1 spectrum was moved to zero intensity using a straight-line baseline correction algorithm. All these spectral processing operations were carried out on a Silicon Graphics computer using the ‘xwinnmr’ software (Bruker GmBH).
On the basis of this visual examination, animals could be readily categorised as either (i) ‘responders’ or (ii) as ‘weak or non-responders’.

male Sprague-Dawley rats [4] = assay type: in vivo; settings: 200 mg/kg i.p., individual animals 101-110
Description: Dosing was on the day designated as ‘day 1’ when the growing rats were each approximately 250 g in mass. Isoniazid (from Sigma, France) was dissolved in physiological saline and dosed by intraperitoneal injection at either 200 mg/kg or at 400 mg/kg; ten animals (nos. 101-110) received the low dose and ten animals (nos. 201-210) received the high dose. Ten control animals (nos. 1-10) received an intraperitoneal injection of saline.
It was intended that post-dose blood samples would be taken immediately before euthanasia with euthanasia being immediately followed by sampling for histopathology. As in Example 1, the intention was that five of each group of ten rats would be euthanased by means of CO2 at one day after dosing thereby providing early blood and histopathology samples; the remainder were to be euthanased by the same technique at seven days after dosing thereby providing late blood and histopathology samples. It was planned that the early-euthanased rats would be numbers 6-10, 106-110 and 206-210 whilst the late-euthanased rats would be numbers 1-5, 101-105 and 201-205. […] The urine samples were deep-frozen pending NMR analysis. […]

[5] = 200 mg/kg i.p., individual animals 106-110, hydrochloride
[6] = 800 mg/kg i.p., individual animals 206-210, hydrochloride
[7] = 200 mg/kg i.p., animals 101-105
[8] = 800 mg/kg i.p., animals 201-205, hydrochloride
[9] = 800 mg/kg i.p., day 2 and day 3, animals 201 and 202
[10] = 800 mg/kg i.p., day 3, animals 201 and 202
[11] = 800 mg/kg i.p., day 3, animals 201 and 202, hydrochloride

histopathological changes (male Sprague-Dawley rats [1]; day 2): No differences
histopathological changes (male Sprague-Dawley rats [1]; day 8): No differences
GGT (γ-glutamyl transferase) (male Sprague-Dawley rats [2]; 200 mg/kg i.p., individual animals 106-110): 0 IU/L
A/G (albumin/globulin ratio) (male Sprague-Dawley rats [2]; [5]): 1.3 and 1.4 (3×) and 1.5
ALB (albumin) (male Sprague-Dawley rats [2]; [5]): 33 g/L (3×) and 37 g/L and 34 g/L
CREA (creatinine) (male Sprague-Dawley rats [2]; [5]): 0.5 mg/dL (4×) and 0.4 mg/dL
A/G (albumin/globulin ratio) (male Sprague-Dawley rats [2]; [6]): 1.7 and 2.1 and 1.5 and 2.4 and 1.8
CREA (creatinine) (male Sprague-Dawley rats [2]; [6]): 0.4 mg/dL (4×) and 0.5 mg/dL
urinary creatine (male Sprague-Dawley rats [3]; [7]): Creatine: no increase
urinary taurine (male Sprague-Dawley rats [3]; [7]): instances of raised
urinary histidine (male Sprague-Dawley rats [3]; 800 mg/kg i.p., day 3, animal 201, hydrochloride): increased excretion
Structure (SMILES): Cl.N[C@H]1C(O)O[C@H](CO)[C@H](O)[C@@H]1O (stereo partly shown) [galactosamine HCl, galactosamine hydrochloride]
animals with multifocal randomly scattered foci of hepatocellular necrosis (male Sprague-Dawley rats [1]; 800 mg/kg i.p., day 2): hepatocellular necrosis were present in 4/5
severity of changes (hepatocellular necrosis) (male Sprague-Dawley rats [1]; 800 mg/kg i.p., day 2, individual animals 206-210, hydrochloride): 207 - mild and 206, 210 - marked and 209 - severe and 208 - none
animals with minimal bile duct hyperplasia (male Sprague-Dawley rats [1]; 800 mg/kg i.p., day 8): Minimal bile duct hyperplasia was found in 2/5
5′-NT (5-nucleotidase) (male Sprague-Dawley rats [2]; [5]): 23 IU/L and 21 IU/L (2×) and 19 IU/L and 27 IU/L
ALAT (alanine aminotransferase) (male Sprague-Dawley rats [2]; [5]): 43 IU/L and 46 IU/L and 49 IU/L and 38 IU/L and 47 IU/L
AP (alkaline phosphatase) (male Sprague-Dawley rats [2]; [5]): 606 IU/L and 495 IU/L and 566 IU/L and 697 IU/L and 637 IU/L
ASAT (aspartate aminotransferase) (male Sprague-Dawley rats [2]; [5]): 107 IU/L and 84 IU/L and 73 IU/L and 67 IU/L and 75 IU/L
BILI (bilirubin) (male Sprague-Dawley rats [2]; [5]): 0.09 mg/dL and 0.05 mg/dL and 0.11 mg/dL and 0.1 mg/dL and 0.12 mg/dL
CHOL (total cholesterol) (male Sprague-Dawley rats [2]; [5]): 73 mg/dL and 60 mg/dL and 91 mg/dL and 72 mg/dL and 81 mg/dL
GLUC (glucose) (male Sprague-Dawley rats [2]; [5]): 173 mg/dL and 184 mg/dL and 167 mg/dL and 138 mg/dL and 182 mg/dL
PROT (total protein) (male Sprague-Dawley rats [2]; [5]): 59 g/L and 56 g/L and 61 g/L and 58 g/L and 57 g/L
TBA (total bile acids) (male Sprague-Dawley rats [2]; [5]): 48.0 μmol/L and 22.0 μmol/L and 29.0 μmol/L (2×) and 23.0 μmol/L
TRIG (triglycerides) (male Sprague-Dawley rats [2]; [5]): 94 mg/dL and 158 mg/dL and 140 mg/dL and 109 mg/dL and 127 mg/dL
UREA (urea) (male Sprague-Dawley rats [2]; [5]): 29 mg/dL and 40 mg/dL and 33 mg/dL and 28 mg/dL (2×)
5′-NT (5-nucleotidase) (male Sprague-Dawley rats [2]; [6]): 156 IU/L and 23 IU/L and 17 IU/L and 203 IU/L and 35 IU/L
ALAT (alanine aminotransferase) (male Sprague-Dawley rats [2]; [6]): 2350 IU/L and 178 IU/L and 45 IU/L and 4300 IU/L and 479 IU/L
ALB (albumin) (male Sprague-Dawley rats [2]; [6]): 32 g/L and 33 g/L (2×) and 34 g/L and 31 g/L
AP (alkaline phosphatase) (male Sprague-Dawley rats [2]; [6]): 787 IU/L and 983 IU/L and 666 IU/L and 999 IU/L and 852 IU/L
ASAT (aspartate aminotransferase) (male Sprague-Dawley rats [2]; [6]): 4320 IU/L and 264 IU/L and 79 IU/L and 10600 IU/L and 832 IU/L
BILI (bilirubin) (male Sprague-Dawley rats [2]; [6]): 1.26 mg/dL and 0.06 mg/dL and 0.11 mg/dL and 1.37 mg/dL and 0.12 mg/dL
CHOL (total cholesterol) (male Sprague-Dawley rats [2]; [6]): 60 mg/dL and 15 mg/dL and 61 mg/dL and 42 mg/dL and 46 mg/dL
GGT (γ-glutamyl transferase) (male Sprague-Dawley rats [2]; [6]): 2 IU/L and 0 IU/L (2×) and 5 IU/L and 1 IU/L
GLUC (glucose) (male Sprague-Dawley rats [2]; [6]): 100 mg/dL and 162 mg/dL and 168 mg/dL and 80 mg/dL and 130 mg/dL
PROT (total protein) (male Sprague-Dawley rats [2]; [6]): 51 g/L and 49 g/L and 56 g/L and 47 g/L and 48 g/L
TBA (total bile acids) (male Sprague-Dawley rats [2]; [6]): 493 µmol/L and 43.0 µmol/L and 20.0 µmol/L and 1300 µmol/L and 65.0 µmol/L
TRIG (triglycerides) (male Sprague-Dawley rats [2]; [6]): 38 mg/dL (2×) and 89 mg/dL and 148 mg/dL and 95 mg/dL
UREA (urea) (male Sprague-Dawley rats [2]; [6]): 45 mg/dL and 24 mg/dL and 29 mg/dL and 40 mg/dL and 25 mg/dL
urinary 2-oxoglutarate (male Sprague-Dawley rats [3]; [8]): 2-Oxoglutarate: Animals 203-205 showed no obvious change and reduced levels on days 2 and 3 but very high levels on day 7.
urinary taurine (male Sprague-Dawley rats [3]; [8]): increases; also recorded: Taurine: Animals 203-205 showed no clear change whilst; also recorded: animals 201 & 202 showed highly elevated levels
urinary guanidinoacetic acid (GAA) (male Sprague-Dawley rats [3]; 800 mg/kg i.p., animals 201 and 202, hydrochloride): increases; also recorded: very much increased levels on day 3 and perhaps somewhat
urinary betaine (male Sprague-Dawley rats [3]; 800 mg/kg i.p., day 2 and day 3, animals 201 & 202, hydrochloride): increases; also recorded: Betaine: appeared very clearly in the day 2 and day 3 samples
urinary glucose (male Sprague-Dawley rats [3]; [9]): Glucose: appeared to be elevated in the day 2 and day 3
urinary urocanic acid (male Sprague-Dawley rats [3]; [9]): Urocanic acid: appeared clearly in the day 2 and day 3
urinary glutamate and glutamine (male Sprague-Dawley rats [3]; 800 mg/kg i.p., day 3, animal 201): Glutamate and glutamine were elevated in the day 3 urine
urinary trimethylamine-N-oxide (TMAO) (male Sprague-Dawley rats [3]; 800 mg/kg i.p., day 3, animals 201 & 202, hydrochloride): decreases; also recorded: levels, TMAO had essentially disappeared from the day 3
urinary bile acids (seen as C18 methyl) (male Sprague-Dawley rats [3]; [10]): Bile acids: clearly increased (seen as C18 methyl) in the day
urinary threonine (male Sprague-Dawley rats [3]; [10]): Threonine: was very clearly elevated in the day 3 samples
urinary creatine (male Sprague-Dawley rats [3]; [11]): increases; also recorded: Creatine: Only animals 201 and 202 showed a clear increase
urinary hippurate (male Sprague-Dawley rats [3]; [11]): decreased excretion; also recorded: Hippurate: was depleted in the day 3 samples from animals
Total amount of galactosamine excreted in the urine from 0-24 hours post-dosing (male Sprague-Dawley rats [3]; 800 mg/kg i.p., individual animals 201-210, hydrochloride): 40.0 mg and 26.2 mg and 0.4 mg and 0.1 mg and 0.3 mg and 14.9 mg and 8.4 mg and 2.3 mg and 28.2 mg and 30.5 mg

Structure (SMILES): NNC(=O)c1ccncc1 [isoniazid]
Premature Death? (male Sprague-Dawley rats [4]): No
